Experimental data published in PubChem BioAssay AID493102 (Broad Institute, 2011).

System: SK-MEL-5 TRPM1-promoter luciferase reporter, 24 h
Experiment: reducers of TRPM1 reporter luminescence, concentration series – cell-based, SK-MEL-5, cherry-picked, set 4, MITF inhibitor project, dose response (AID 493102);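 further: actives lower the luciferase signal so the potency reflects inhibition of reporter expression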

Row | SMILES | AC50
1 | CCSc1ccccc1C(=O)n1nnc2ccccc21 | 11.8 µM
2 | O=C(Nc1ccccc1N1CCOCC1)c1ccc([N+](=O)[O-])s1 | 12.3 µM
3 | Cc1ccc(C(O)(c2ccc(C)c(C)c2)C2CN3CCC2CC3)cc1C (stereo not given) | 10.1 µM
4 | Nc1nnnn1/N=C/C(Br)=C/c1ccccc1 | 5.44 µM
5 | CCCCN(CC)CCCNC(=O)c1cc2c(=O)n(CC)c3ccccc3c2s1 | 21.6 µM
6 | O=C(Cn1ncc(Cl)c(Cl)c1=O)NC1CCCCC1 | 6.82 µM
7 | COc1ccc2cc3cc(C(=O)NCCc4ccc(OC)c(OC)c4)oc3nc2c1 | 16.2 µM
8 | CC(C)(C)c1ccc(C(=O)Nc2sc3c(c2C(=O)O)CCC3)cc1 | 2.09 µM
9 | O=C(O)c1ccc(Nc2nc3c(s2)CCCC3)cc1 | 6.49 µM
10 | COc1cc(OC)cc(C(=O)N[C@H](C(=O)Nc2nc3ccccc3[nH]2)C(C)C)c1 | 2.44 µM
11 | O=C(Cn1ncc(Cl)c(Cl)c1=O)Nc1ccc2c(c1)OCO2 | 13.2 µM
12 | CCOc1c(Br)cc(CNC2CCCCCCC2)cc1OC | 20.5 µM
13 | CCN(CC)S(=O)(=O)c1ccc(N2CCCC2)c(NC(=O)c2ccc([N+](=O)[O-])o2)c1 | 3.18 µM
14 | CCn1c(/C=C/Nc2ccccc2)[n+](CC)c2cc(Cl)c(Cl)cc21 | 14.5 µM
15 | Nc1ccc(-c2cc3ccccc3c(=O)o2)cc1 | 0.293 µM
16 | CCCCC[n+]1ccn(C2=C([O-])c3ccccc3C(=O)/C2=N\S(=O)(=O)c2ccccc2)c1 | 5.9 µM
17 | CCOc1cc(NC(=O)CCl)c(OCC)cc1NC(=O)CCl | 5.5 µM
18 | O=C(/C=C/c1ccc([N+](=O)[O-])s1)N1CCCC1 | 9.86 µM
19 | CCN(CC)CCNC(=O)c1c(C)n(-c2ccccc2)c2cc(Br)c(OC)cc12 | 12.9 µM
20 | C#CCCc1ccccc1/C=[N+](/C)[O-] | 9.4 µM
21 | O=C(O)c1cccc(NC(=O)c2cccc(NC(=O)C3CCCO3)c2)c1 (stereo not given) | 21.2 µM
22 | Cn1cc(C(=O)CCl)c2ccccc21 | 8.48 µM
23 | CCN(Cc1ccc(OC)c(F)c1)C(=O)CCl | 3.36 µM

Row | SMILES | AC50
24 | CN(C)CCCN(C(=O)c1ccc(Cl)s1)c1nc2cc3c(cc2s1)OCO3 | 22.9 µM
25 | CC(C)(c1ccccc1)c1ccc(OCC(O)CNC2CCN(Cc3ccccc3)CC2)cc1 (stereo not given) | 7.94 µM
26 | CCN1CCCC1CNC(=O)c1ccc2c(c1)NC(=O)/C(=C\c1ccc(C)cc1)S2 (stereo not given) | 18.9 µM
27 | COc1ccc(C(CCNC(C)c2ccccc2)c2ccc(F)cc2)cc1 (stereo not given) | 16.6 µM
28 | CC(C)(C)C(=O)Cn1ncc(Cl)c(Cl)c1=O | 10.4 µM
29 | CCCOc1ccc(C(=O)C(CN2CCCC2)c2ccccc2)cc1 (stereo not given) | 8.62 µM
30 | O=C(CCl)Nc1ccc(-c2ccccc2)cc1 | 7.3 µM
31 | COC1=C(Nc2ccc(O)cc2)C(=O)c2ccccc2C1=O | 5.14 µM
32 | CC1(C)CC(NC(=O)c2ccc(Cl)c(S(=O)(=O)N(Cc3ccccc3)c3ccccc3)c2)CC(C)(C)N1 | 10.3 µM
33 | COc1cc(NC(=O)COc2ccccc2[N+](=O)[O-])ccc1NC(=O)c1cccs1 | 10.1 µM
34 | CCOC(=O)CCc1ccc(NC(=O)/C=C/c2ccc([N+](=O)[O-])o2)cc1 | 6.83 µM
35 | C=CCC(Nc1ccccc1)C12C=CC(O1)C(C(=O)OC)=C2C(=O)OC (stereo not given) | 11.7 µM
36 | O=C1c2ccccc2C(=O)c2c1ncn2-c1ccccc1 | 7.33 µM
37 | CC(C)CN=C(NS(=O)(=O)c1ccccc1)C(Cl)(Cl)Cl | 11.1 µM
38 | O=S(=O)(c1ccc(F)cc1)c1snnc1-c1ccccc1 | 15.1 µM
39 | COc1cc(C2C(C#N)=C(N)Oc3cc4c(cc32)OCO4)cc(OC)c1OC (stereo not given) | 0.365 µM
40 | O=C(N/N=C/c1ccc([N+](=O)[O-])o1)c1ccccc1-n1cccc1 | 17.1 µM
41 | CCn1c(C)cc(C(=O)CN2C(=O)c3ccccc3S2(=O)=O)c1C | 1.99 µM
42 | CCC(C)(C)c1ccc(OCCCC[n+]2ccccc2)c(C(C)(C)CC)c1 | 4.35 µM
43 | CN1CCN(C2=C(NS(=O)(=O)c3ccccc3)C(=O)c3ccccc3C2=O)CC1 | 6.9 µM
44 | CC1=C/C(=N\NC(=S)Nc2cccnc2)CC(C)(C)C1 | 11 µM
45 | CC1CCN(CC(CS(=O)(=O)c2ccc([N+](=O)[O-])cc2)N2CCC(C)CC2)CC1 (stereo not given) | 6.62 µM
46 | O=C(CCl)N1c2ccccc2CCc2ccccc21 | 5.54 µM

Row | SMILES | AC50
47 | CCC(=O)N1CCN(c2ccc(NC(=O)c3ccc([N+](=O)[O-])o3)cc2Cl)CC1 | 6.08 µM
48 | O=C1C(Cl)=C(Nc2ccccc2)C(=O)c2ccccc21 | 2.88 µM
49 | N#Cc1c(NC(=O)CSc2ncn[nH]2)sc2c1CCCCC2 | 0.371 µM
50 | Cc1cc(C)c2ccc(N)nc2c1O | 9.58 µM
51 | O=C(NC1CCCCC1)C(c1cccnc1)N(C(=O)CCl)c1cccc(Cl)c1 (stereo not given) | 4.16 µM
52 | O=C(N/N=C/c1ccc([N+](=O)[O-])o1)c1ccc(O)cc1 | 5.2 µM
53 | CCN1CCN(CCCNC(=O)c2ccc3c(c2)NC(=O)/C(=C\c2cccc(C)c2)S3)CC1 | 9.93 µM
54 | CCOC(=O)c1[nH]cnc1N=Nc1c(O)ccc2ccccc12 | 3.76 µM
55 | COc1ccc2nc(N3CCN(C(=O)c4ccc([N+](=O)[O-])o4)CC3)sc2c1 | 5.81 µM
56 | Cc1ccc(-n2cc(CNCCCn3ccnc3C)c(-c3ccc(F)cc3)n2)cc1 | 7.58 µM
57 | C=CCn1c(C)cc(C2=NNC(=NCC)SC2)c1C | 0.056 µM
58 | Cc1ccc(-c2cn(-c3ccc(SC(F)F)cc3)c3[n+]2CCC3)cc1 | 1.64 µM
59 | O=c1c(Cl)c(Cl)cnn1Cc1ccc(F)cc1 | 8.9 µM
60 | C/C(=N\NC(=O)C1COc2ccccc2O1)c1ccccn1 (stereo not given) | 4.49 µM
61 | COc1ccc(Cn2c(-c3ccc(C)cc3)c[n+]3ccccc23)cc1 | 2.89 µM
62 | COCCn1c(C)cc(C(=O)COC(=O)c2ccccc2Br)c1C | 1.14 µM
63 | COc1ccccc1NC(=O)c1nc(S(=O)(=O)Cc2ccccc2)ncc1Cl | 8.91 µM
64 | CCOC(=O)c1ccc(NC(=O)c2nc(S(=O)(=O)Cc3ccccc3)ncc2Cl)cc1 | 9.92 µM
65 | Cc1onc(-c2ccccc2)c1C(=O)N/N=C/c1ccc([N+](=O)[O-])s1 | 5.35 µM
66 | COc1ccccc1NS(=O)(=O)c1cccc(C(=O)N/N=C/c2ccc([N+](=O)[O-])o2)c1 | 4.3 µM
67 | O=C(CCl)N1N=C(c2ccco2)CC1c1cccs1 (stereo not given) | 7.84 µM
68 | O=C1c2ccccc2S(=O)(=O)N1Cc1nc2ccccc2s1 | 2.7 µM
69 | CCOC(=O)Cn1c(=NC(=O)c2ccc([N+](=O)[O-])s2)sc2ccccc21 | 3.5 µM

Row | SMILES | AC50
70 | Cn1nnnc1Sc1ncnc2scc(-c3ccsc3)c12 | 7.95 µM
71 | CCOC(=O)c1c(C)oc2c(F)c(F)c(F)c(F)c2c1=O | 2.32 µM
72 | CCc1cc[n+](C2=C([O-])c3ccccc3C(=O)/C2=N\S(=O)(=O)c2cccs2)cc1 | 1.15 µM
73 | CCOC(=O)CSC1=NC(=O)/C(=C\c2ccc(OC(C)=O)cc2)S1 | 5.13 µM
74 | O=C1NC(=O)N(Cc2ccccc2)C(=O)/C1=C/C=C/c1ccco1 | 4.85 µM
75 | Cc1ccc(NC(=O)c2ccc([N+](=O)[O-])o2)cc1S(=O)(=O)N1CCOCC1 | 11.4 µM
76 | O=C(Nc1nc(-c2ccccn2)cs1)c1ccccc1-n1cnnn1 | 6.96 µM
77 | Cc1ccc2nc(NC(=O)CSCC(=O)OCC(=O)c3ccccc3)sc2c1 | 5.78 µM
78 | CC(C)CC(=O)NC(c1cccs1)c1ccc2cccnc2c1O (stereo not given) | 3.71 µM
79 | CCN1CCN(C2=C(NS(=O)(=O)c3ccc(C)cc3)C(=O)c3ccccc3C2=O)CC1 | 4.18 µM
80 | O=C(c1nnsc1S(=O)(=O)c1ccc(Cl)cc1)N1CCOCC1 | 9.51 µM
81 | Cc1ccc(S(=O)(=O)N2CCCCC2)cc1NC(=O)Cn1ncc(Cl)c(Cl)c1=O | 6.21 µM
82 | CC(=O)Nc1ccc(S(=O)(=O)NC2=C(N3CCN(C)CC3)C(=O)c3ccccc3C2=O)cc1 | 3.65 µM
83 | Cc1cc(C(=O)CCl)c(C)n1CCc1ccc(F)cc1 | 4.25 µM
84 | COc1ccc(-n2cc(-c3ccc(C)cc3)[n+]3c2SCC3)cc1 | 2.91 µM
85 | CCN1CCc2c(sc(NC(=O)c3ccc(S(=O)(=O)N4CCCC4)cc3)c2C(=O)NC)C1 | 9.14 µM
86 | Cc1ccc(-c2cc3onc(-c4ccccc4)c3c(=O)n2C)cc1 | 9.77 µM
87 | COc1ccc(/C=N/Nc2cc(C)nc(-n3nc(C)cc3C)n2)c(OC)c1 | 10.4 µM
88 | CCCCN(C)CC(O)Cn1cc(/C=C/C(=O)c2cccs2)c2ccccc21 (stereo not given) | 14.3 µM
89 | CCOC(=O)c1c(NC(C)=O)sc2c(OCC(O)CNC(C)(C)C)c(Br)ccc12 (stereo not given) | 7.72 µM
90 | C=CCn1c(C)cc(C(=O)CN2C(=O)c3ccccc3S2(=O)=O)c1C | 0.666 µM
